Source: patent publication US20130231262A1, “ENGINEERED PROTEIN: "2-COLOR SERCA", AN ION-MOTIVE ATPase FUSED TO CERULEAN AND YELLOW FLUORESCENT PROTEIN” (LOYOLA UNIVERSITY CHICAGO, priority 2012, published 2013)

Experiments:
[1] = target: T1, 2-color SERCA (construct 509) (Canis lupus familiaris, UniProt O46674); assay: Tg titration of 2-color SERCA FRET change in AAV-293 cells; type: cell-based, canine
T1 construct: other: Tg-dependent FRET change of construct 509; mCerulean (Cer) was fused to the N-terminus of canine SERCA2a; fused on or other part: mCerulean at the N-terminus
T1 sequence (O46674 whole entry, the tested form may be a part): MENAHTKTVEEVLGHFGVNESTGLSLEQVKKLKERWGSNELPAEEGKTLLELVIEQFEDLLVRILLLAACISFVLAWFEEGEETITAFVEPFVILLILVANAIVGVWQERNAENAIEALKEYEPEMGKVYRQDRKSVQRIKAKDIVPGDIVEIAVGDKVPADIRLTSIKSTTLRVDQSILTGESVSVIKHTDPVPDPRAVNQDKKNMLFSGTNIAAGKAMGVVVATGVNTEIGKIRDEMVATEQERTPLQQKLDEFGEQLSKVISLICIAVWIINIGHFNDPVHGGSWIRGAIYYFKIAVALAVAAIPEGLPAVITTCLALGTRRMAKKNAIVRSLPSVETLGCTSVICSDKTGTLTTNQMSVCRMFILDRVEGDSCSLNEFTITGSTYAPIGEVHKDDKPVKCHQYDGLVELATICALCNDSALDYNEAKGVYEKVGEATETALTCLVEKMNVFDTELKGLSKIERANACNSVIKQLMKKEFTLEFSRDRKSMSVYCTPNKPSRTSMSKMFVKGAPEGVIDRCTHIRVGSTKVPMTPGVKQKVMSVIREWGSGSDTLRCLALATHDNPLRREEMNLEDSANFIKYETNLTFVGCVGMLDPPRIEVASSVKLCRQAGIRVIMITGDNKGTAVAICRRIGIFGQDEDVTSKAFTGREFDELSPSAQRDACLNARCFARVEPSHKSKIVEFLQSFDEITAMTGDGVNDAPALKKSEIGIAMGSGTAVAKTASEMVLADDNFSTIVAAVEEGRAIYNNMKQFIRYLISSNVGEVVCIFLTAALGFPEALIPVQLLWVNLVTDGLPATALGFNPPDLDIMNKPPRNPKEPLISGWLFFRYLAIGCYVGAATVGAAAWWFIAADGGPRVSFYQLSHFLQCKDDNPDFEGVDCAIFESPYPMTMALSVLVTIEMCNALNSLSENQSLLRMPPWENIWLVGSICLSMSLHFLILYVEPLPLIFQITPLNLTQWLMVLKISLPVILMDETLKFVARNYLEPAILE
Protocol: One consequence of the slow FRET response at low concentrations of Tg is that the apparent EC50 decreased over time. This is evident in FIG. 8B as a left shift in the binding curve with time. This change is quantified in FIG. 8C. The apparent upper limit estimate of EC50 (obtained from the final EC50 value) was approximately 100 nM, which is compatible with the subnanomolar affinity of the Tg-SERCA complex.

[2] = test system: 2-color SERCA (construct 509); details: cited from earlier work

For `C/C=C(/C)C(=O)O[C@H]1C(C)=C2[C@H]([C@@H]1OC(=O)CCCCCCC)[C@@](C)(OC(C)=O)C[C@H](OC(=O)CCC)[C@@]1(O)[C@H]2OC(=O)[C@@]1(C)O` [Tg, thapsigargin], the EC50 [1] is given as ~100 nM and the “affinity of the Tg-SERCA complex” value [2] is given as “subnanomolar”.
